Patent US8420815B1, “Anti-cancer agents based on N-acyl-2, 3-dihydro-1H-pyrrolo[2,3-b]quinoline derivatives and a method of making” (U.S. Department of Energy, priority 2010, dated 2013)

Each compound was assayed on DU-145 cells (assay: Cell proliferation assay (Alamar-Blue), proliferation inhibition of DU-145 cells). Details: Homo sapiens, 72 h, 3 days incubation, Alamar-Blue fluorescence.
Assay type: cell-based
Experimental: Protocol for Cell Proliferation Assay:
This homogeneous assay involves simply adding a single reagent, the Alamar-Blue, to the cell culture and measuring the fluorescence intensity (excitation wavelength=530 nm, emission wavelength=590 nm) after an incubation step. The Alamar-Blue reagent utilizes the redox dye resazurin, which is not fluorescent, but upon reduction by metabolically active cells is converted into a highly fluorescent product (resorufin). A decrease in fluorescence in the presence of a test compound indicates reduced proliferation. This change in signal is proportional to the number of viable cells and used as a measure of relative cytotoxicity. Therefore, the fluorescence intensity observed in this assay is a true measure of the viable proliferative cells.
• 2 mM stock of Paclitaxel in DMSO. • DMSO (Panreac, Cat. number 141954.1611) • Resazurin sodium salt (Sigma, R-7071). 50 mM stock in DMSO. Equipment • Biomek FX Laboratory Automated Workstation (Beckman Coulter Inc., Fullerton, Calif.) • CO2 incubator (VWR Science, USA) • Bright line Hemacytometer (Z359629, Sigma, IL, USA) Materials • 384-deep well plates (Greiner, N^o 781270) • 384-well optical bottom tissue culture plates (Greiner, No. 82051-282) Propagation CONDITIONS: 37° C., air 95%; carbon dioxide (CO2) 5%, humidified atmosphere. Subculturing: • Cells were grown in 175 cm^2 flasks to 90-100% of confluency. • Culture medium (RPMI-1640 (Paneco, C310)+10% fetal bovine serum (FBS)) was aspirated and cell layer was briefly rinsed with 0.53 mM EDTA (ethylenediaminetetraacetic acid) solution to remove all traces of serum. • 2 ml of 0.2% trypsin/0.53 mM EDTA solution was added to cells. • Flasks were returned to incubator for 5 min to allow cells detachment. • Add 6.0 ml of culture medium. • Single cell suspension was created by gently pipetting. • Cells are counted using a Hematocytometer and suspension with desirable cell concentration is prepared.
To test proliferation inhibition DU-145 cells were plated in 384-well plate at the density 4000 cells/well. Next day 4 mM solutions of compounds in DMSO were diluted 100 times in medium and added to cells to final concentration 20 uM (40 ul of cells+40 ul of compounds). Taxol at final concentration 1 uM was used as positive control. Cells were incubated with compounds for 3 days. After that Alamar-Blue was added to cells to final concentration of 50 uM. After incubation for 4-6 hours at 37° C., fluorescence in plate was read using fluorescence plate reader Wallac 1420 (530 nm excitation filter, 590 nm emission filter). Proliferation inhibition was calculated using formula: % INH=100*((Fnegative−compound signal)/(Fnegative−Fpositive)), • Fnegative—DMSO was added to cells (viable cells) • Fpositive—taxol (1 uM) was added to cells (number of cells at the first day of incubation)

| SMILES | IC50 [µM] |
| --- | --- |
| Cc1cccc2cc3c(nc12)N(C(=O)c1ccccc1Br)CC3 [Example 11, (2-bromophenyl)(8-methyl-2,3-dihydro-1H-pyrrolo[2,3-b]quinolin-1-yl)methanone] | 15000 |
| CC1=Cc2c3c(ccc2=N1)=CCCN3C(=O)c1cccc(F)c1 [Example 10, (3-fluorophenyl)(8-methyl-2,3-dihydro-1H-pyrrolo[2,3-h]quinolin-1-yl)methanone] | 4400 |
| COc1ccccc1C(=O)N1CCc2cc3cccc(C)c3nc21 [Example 6, (2-methoxyphenyl)(8-methyl-2,3-dihydro-1H-pyrrolo[2,3-b]quinolin-1-yl)methanone] | 16.1 |
| COc1cccc(C(=O)N2CCc3cc4cc(C)ccc4nc32)c1 [Example 3, (3-methoxyphenyl)(6-methyl-2,3-dihydro-1H-pyrrolo[2,3-b]quinolin-1-yl)methanone] | 0.613 |
| Cc1cccc2cc3c(nc12)N(C(=O)c1ccccc1F)CC3 [Example 8, (2-fluorophenyl)(8-methyl-2,3-dihydro-1H-pyrrolo[2,3-b]quinolin-1-yl)methanone] | 134 |
| COc1ccccc1C(=O)N1CCc2cc3ccccc3nc21 [Example 4, 2,3-dihydro-1H-pyrrolo[2,3-b]quinolin-1-yl(2-methoxyphenyl)methanone] | 3.62 |
| Cc1ccc(C(=O)N2CCC=c3cc(C)c4c(c32)C=CN=4)cc1 [Example 5, (6-methyl-2,3-dihydro-1H-pyrrolo[2,3-h]quinolin-1-yl)(4-methylphenyl)methanone] | 10.3 |
| O=C(c1ccccc1Br)N1CCc2cc3ccccc3nc21 [Example 9, (2-bromophenyl)(2,3-dihydro-1H-pyrrolo[2,3-b]quinolin-1-yl)methanone] | 238 |
| COc1cc(C(=O)N2CCc3cc4ccccc4nc32)cc(OC)c1OC [Example 1, 2,3-dihydro-1H-pyrrolo[2,3-b]quinolin-1-yl(3,4,5-trimethoxyphenyl)methanone] | 0.114 |
| CC1=Cc2c3c(ccc2=N1)=CCCN3C(=O)c1ccccc1C [Example 7, (8-methyl-2,3-dihydro-1H-pyrrolo[2,3-h]quinolin-1-yl)(2-methylphenyl)methanone] | 17.2 |
| COc1ccc(C(=O)N2CCc3cc4cc(C)ccc4nc32)cc1OC [Example 2, (3,4-dimethoxyphenyl)(6-methyl-2,3-dihydro-1H-pyrrolo[2,3-b]quinolin-1-yl)methanone] | 0.183 |
